Where two headings read alike, the source gives them in different places.
Assays:
Assay type in all cases: cell-based, mouse
[1] = tested on: Alkaline Phosphatase gene expression in BMSC culture; settings: four days in OM media, control = 1.00
Procedure: (§1) Mesenchymal stem cells isolation: Bone marrow stromal cells were isolated from six to eight weeks old wild type mice. Femurs and tibias were dissected from surrounding tissues. The epiphyseal growth plates were removed and the marrow was collected by flushing with modified essential medium (MEM) containing 100 U/ml Penicillin, 100 μg/ml streptomycin and 10% fetal bovine serum with a 25 G needle. Single cell suspensions were prepared by passing the cell clumps through an 18G needle followed by filtration through a 70-μm cell strainer.
(§2) After cells reached confluence, medium was replaced with osteogenic differentiation medium (OM). Osteogenic differentiation medium (OM) consists of: DMEM, 10% FBS, Pen-Strep (1×), L-Glutamine (2 mM), 10 mM beta glycerol phosphate and 50 μg/ml ascorbic acid. Duplicate wells were exposed to differentiation media without any agent (control), single agent (Cholecalciferol, ATO or Lovastatin) or Nosto-101 combination agents. Media replacement occurred every 2-3 days with fresh differentiation medium (made each time during feeding) with or without single agent or Nosto-101.
qRT-PCR: Total RNA was isolated first with Trizol (Invitrogen) and then with RNeasy Kit (Qiagen). First strand cDNA was generated using a High capacity cDNA reverse transcriptase kit (Abcam). qPCR was performed using a Biorad cycler at 40 cycles of 95° C. for 5 seconds and at 60° C. for 30 seconds. PCR product was detected using SybrGreen (BioRad). Primers used for amplifications were Actin: Forward 5′-CACAGCTTCTTTGCAGCTCCT-3′ (SEQ ID NO:1), Reverse 5′-CGT CAT CCA TGG CGA ACT G-3′ (SEQ ID NO:2); Alk Phos: Forward 5′-CACGCGATGCAACACTCAGG-3′ (SEQ ID NO:3), Reverse 5′-GCATGTCCCCGGGCTCAAAGA-3′ (SEQ ID NO:4).

[2] = tested on: bone marrow stromal cells (BMSC), first passage (P1); test: Alkaline phosphatase assay (NBT/BCIP staining) of primary BMSC (P1) in osteogenic media; settings: primary BMSC P1, four days in osteogenic media; ATO 10 μM, Cholecalciferol 10 μM, Lovastatin 1 μM, NP101 diluted 1:1 or 1:10 (FIG. 1)
Procedure: as §1, §2
(§3) Alkaline phosphatase assay: Cells were stained after 4 days exposure in OM differentiation medium for Alkaline Phosphatase (AP) assay. This is a colorimetric assay in which NBT (nitro-blue tetrazolium chloride) and BCIP (5-Bromo-4-chloro-3′-indolyphosphate p-toluidine salt) yields insoluble purple precipitate when reacted with alkaline phosphatase enzyme.
After 4 days of culturing cells in OM media, cells were fixed with 4% paraformaldehyde and then washed once with PBS. One ml of One-step NBT/BCIP staining solution (Thermo Fisher) was added per well and the cells were then incubated in the dark for 30 min to 1 h and checked for color development. The reaction was quickly stopped by removing NBT/BCIP and adding water.

[3] = tested on: BMSC cells primed for osteogenesis; settings: BMSC primed with LCN2 and PRL, then osteogenic media with agent; ATO 10 μM, Cholecalciferol 10 μM, Lovastatin 1 μM, NP101 diluted 1:1 or 1:10 (FIG. 2)
Procedure: as §1
Priming cells for osteogenseis: An aliquot of cells was diluted 1:1 with 0.04% trypan blue in PBS and viable cells were plated at a density of 2×10^6 cells/cm^2 and in a 35-mm culture dish and exposed to recombinant mouse Prolactin (PRL) (1 ng/ml) and/or Lacritin 2(LCN2) (18 ng/ml) in Alpha MEM media with 20% FBS, L-Glutamine 2 mM and Pen-Strep (1×) for three passages to prime cells for osteogenesis. After the third passage, 50,000 bone marrow stromal cells per well were plated in a 24 well plate in Alpha MEM 20% FBS, L-Glutamine (4 mM), PenStrep (1×) and MEM Non-Essential Amino Acids (1×).
as §2
as §3, with “enzyme. […]” for “enzyme.”

Molecule	ALP gene expression fold change ([1]; 1 μm agent) [fold]	alkaline phosphatase activity (number of blue colored cells) [2]	ALP activity (presence of bluish/purple cells) [3]	ALP gene expression fold change ([1]; 10 μm agent) [fold]
CC[C@H](C)C(=O)O[C@H]1C[C@@H](C)C=C2C=C[C@H](C)[C@H](CC[C@@H]3C[C@@H](O)CC(=O)O3)[C@H]21 [Lovastatin]	0.316 ± 0.02	decreases	clearly diminish ALP activity	
Arsenic trioxide [ATO]		decreases	clearly diminish ALP activity	0.105 ± 0.01
C=C1CC[C@H](O)C/C1=C/C=C1\CCC[C@]2(C)[C@@H]([C@H](C)CCCC(C)C)CC[C@@H]12 [Cholecalciferol]		decreases	clearly diminish ALP activity	0.350 ± 0.02

From US10456409B2 (priority 2016, dated 2019)
